In the NIST ThermoML archive (doi:10.1021/acs.jced.7b00213):

Assay: xn = mol fraction of the nth substance listed
Conditions: Gas, Buoyancy - hydrostatic balance with magnetic suspension - two sinkers, x1 = 0.05362

[HH] [hydrogen] + O=C=O
Conditions	mass density [kg/m3]
273.15 K, 513.52 kPa	9.74868
273.15 K, 1039.6 kPa	20.4494
273.15 K, 1524.6 kPa	31.0881
273.15 K, 2022.4 kPa	42.9575
273.15 K, 2536.9 kPa	56.521
273.15 K, 3036 kPa	71.3532
293.15 K, 503.16 kPa	8.83486
293.15 K, 1014.6 kPa	18.2895
293.15 K, 1992 kPa	37.9543
293.15 K, 3016.7 kPa	61.5091
293.15 K, 4051.1 kPa	89.7154
293.15 K, 4984.9 kPa	121.352
323.15 K, 549.21 kPa	8.70026
323.15 K, 1038.1 kPa	16.7369
323.15 K, 2031.1 kPa	34.0104
323.15 K, 3009.8 kPa	52.4905
323.15 K, 4029.4 kPa	73.5962
323.15 K, 5030.4 kPa	96.6051
323.15 K, 5997.4 kPa	121.561
